Results reported in article PMC5289641, “Bioactivity of a modified human Glucagon-like peptide-1” (PLoS ONE, 2017).
Where two headings read alike, the source gives them in different places. Where no end group is shown, it is not given here.

Experiments:
pepsin = pepsin (Sus scrofa, UniProt P00791); conditions: peptide 1 mg/mL, pepsin 2 mg/mL, HCl solution pH 1.5~2.0, 37°C, SDS-PAGE with silver staining
Method: (§1) Samples (20 μL) treated with either trypsin or pepsin for different lengths of time were then mixed with SDS-PAGE loading buffer (2×), heated at 100°С for 10 min, and then analyzed with SDS-PAGE. Protein bands on the gels were visualized by silver staining.
(§2) The reaction solutions were sampled at different time points and analyzed by SDS-PAGE. […] Negative control is trypsin only.

trypsin = conditions: peptide 10 mg/mL, trypsin 4 mg/mL, PBS pH 7.4, 37°C, SDS-PAGE with silver staining
Method: as §1, §2

[1] = test system: Mouse insulinoma cells (MIN6); conditions: 48 h, CCK-8, OD450
Method: Mouse insulinoma cells (MIN6) (iCell Bioscience, Inc. Shanghai, China) were cultured in a 25 cm^2 cell culture flasks and then seeded into 96-well microplates at a density of 6.0×10^4 cells per well for the cell proliferation assay. […] After 48 h of incubation, 10 μL CCK-8 solution (cell counting kit, Dojindo China Co., Ltd. Shanghai, China) was gently mixed into the culture and the culture was further incubated for 1 to 4 hours. A microplate reader (Bio-Rad, USA) was used to measure cell viability at a 450 nm wavelength (OD450). The cell viability ratio (CRV) was calculated as (A-A0)/A0 × 100% (where A was the absorbance of the treated cell culture and A0 was the OD450 value of a blank (RPMI 1640 medium only)).
Fig 3 Mouse pancreatic β cell proliferation (A), RT-qPCR analysis of gene expression (B), and insulin secretion (C). MIN6 cells were seeded into flat-bottomed 96-well microtiter plates at a density of 6.0×10^4 cells per well. […] The control was cell cultures treated with DPBS only. […] The controls were cells incubated with just DPBS in the presence of 10mM glucose. Cell culture supernatants were collected and insulin concentration determined using a mouse insulin ELISA kit (JiNingShiYe Ltd. Shanghai, China). Data shown represent the mean ±SD (n = 6). Different letters or (*) indicate significant difference at p<0.05.

pancreatin = conditions: peptide 2.5 mg/mL, pancreatin 1.0 mg/mL, PBS pH 7.4, 37°C, SDS-PAGE with silver staining

Chain of pepsin (P00791 60-385): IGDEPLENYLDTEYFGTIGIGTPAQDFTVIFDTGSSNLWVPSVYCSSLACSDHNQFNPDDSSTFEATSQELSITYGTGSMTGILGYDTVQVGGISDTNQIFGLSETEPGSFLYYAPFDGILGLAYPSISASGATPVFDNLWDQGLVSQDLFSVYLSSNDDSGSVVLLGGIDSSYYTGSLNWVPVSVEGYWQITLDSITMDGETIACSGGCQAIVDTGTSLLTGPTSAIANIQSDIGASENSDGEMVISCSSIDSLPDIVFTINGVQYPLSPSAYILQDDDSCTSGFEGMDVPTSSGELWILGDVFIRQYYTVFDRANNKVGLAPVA

Row | Compound | Time to degradation by pepsin (pepsin) | State after 8 h incubation with trypsin (trypsin; 8 h) | Cell viability ratio (CRV) ([1]; 0.3 μM peptide) | Cell viability ratio (CRV) ([1]; 3 μM peptide) | Cell viability ratio (CRV) ([1]; 15 μM peptide) | State after 5 min with pancreatin (pancreatin) | State after 15 min in pancreatin (pancreatin) | Resistance to trypsin cleavage relative to native GLP-1 (trypsin) | Time resistant to trypsin cleavage (trypsin) | Resistance to pancreatin cleavage relative to native GLP-1 (pancreatin)
1 | CC[C@H](C)[C@H](NC(=O)[C@H](Cc1ccccc1)NC(=O)[C@H](CCC(=O)O)NC(=O)[C@H](CCCCN)NC(=O)[C@H](C)NC(=O)[C@H](C)NC(=O)[C@H](CCC(N)=O)NC(=O)CNC(=O)[C@H](CCC(=O)O)NC(=O)[C@H](CC(C)C)NC(=O)[C@H](Cc1ccc(O)cc1)NC(=O)[C@H](CO)NC(=O)[C@H](CO)NC(=O)[C@@H](NC(=O)[C@H](CC(=O)O)NC(=O)[C@H](CO)NC(=O)[C@@H](NC(=O)[C@H](Cc1ccccc1)NC(=O)[C@@H](NC(=O)CNC(=O)[C@H](CCC(=O)O)NC(=O)[C@H](C)NC(=O)[C@@H](N)Cc1c[nH]cn1)[C@@H](C)O)[C@@H](C)O)C(C)C)C(=O)N[C@@H](C)C(=O)N[C@@H](Cc1c[nH]c2ccccc12)C(=O)N[C@@H](CC(C)C)C(=O)N[C@H](C(=O)N[C@@H](CCCCN)C(=O)NCC(=O)N[C@@H](CCCNC(=N)N)C(N)=O)C(C)C [GLP-1, reference compound] | ≤ 10 min | completely degraded | 15.65% | 23.65% | 58.56% | quickly degraded | completely destroyed |  |  | 
2 | HGEGTFTSDVSSYLEGQAAQEFIAWLVDGR-NH2 [mGLP-1] | ≤ 10 min |  | 10.58% | 20.58% | 60.26% | quickly degraded | faint mGLP-1 was still detectable | more resistant | up to 8 hours | more resistant
